Experimental data as given in ChEMBL document CHEMBL1201862, “PubChem BioAssay data set” (2004).
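These data come from cells grown in 96-well plates and exposed to compound for 48 hours at five concentrations. The concentration for 50% growth inhibition is given as GI50.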 Activity calls are given as the source filed them. Rule as the data show it: active = GI50 up to about 1.1 µM and inactive = higher.

Experiments:
Assay in all cases: NCI anticancer screen, dose series, 48 h
SK-MEL-2 = system: SK-MEL-2
HCT-15 = system: HCT-15
CCRF-CEM = system: CCRF-CEM
CAKI-1 = system: CAKI-1
ACHN = system: ACHN
786-0 = system: 786-0
HL-60 = system: HL-60
NCI-H460 = system: NCI-H460
HCC 2998 = system: HCC 2998
SF-295 = system: SF-295
OVCAR-8 = system: OVCAR-8
LOX IMVI = system: LOX IMVI
NCI-H23 = system: NCI-H23
SK-MEL-5 = system: SK-MEL-5
KM12 = system: KM12
OVCAR-5 = system: OVCAR-5
U-251 = system: U-251
SF-539 = system: SF-539
NCI-H522 = system: NCI-H522

Structure (SMILES)	GI50 (SK-MEL-2)	GI50 (HCT-15)	GI50 (CCRF-CEM)	GI50 (CAKI-1)	GI50 (ACHN)	GI50 (786-0)	GI50 (HL-60)	GI50 (NCI-H460)	GI50 (HCC 2998)	GI50 (SF-295)	GI50 (OVCAR-8)	GI50 (LOX IMVI)	GI50 (NCI-H23)	GI50 (SK-MEL-5)	GI50 (KM12)	GI50 (OVCAR-5)	GI50 (U-251)	GI50 (SF-539)	GI50 (NCI-H522)
CCC(=O)N1C(=O)OCC1C(C)C (stereo unspecified)	> 100 µM (inactive)	> 100 µM	> 100 µM (inactive)	> 100 µM (inactive)	> 100 µM (inactive)	> 100 µM (inactive)	> 100 µM (inactive)	> 100 µM (inactive)	> 100 µM (inactive)	> 100 µM (inactive)	> 100 µM (inactive)	> 100 µM (inactive)	> 100 µM (inactive)	> 100 µM (inactive)	> 100 µM (inactive)	> 100 µM (inactive)	> 100 µM (inactive)	> 100 µM (inactive)	–
CC1CC(=O)Nc2ccc(Cl)cc2N1C(=O)CN1CCC(CCCCN(C)C)CC1 (stereo unspecified)	–	> 100 µM	> 100 µM (inactive)	> 100 µM (inactive)	> 100 µM (inactive)	> 100 µM (inactive)	> 100 µM (inactive)	> 100 µM (inactive)	> 100 µM (inactive)	> 100 µM (inactive)	> 100 µM (inactive)	> 100 µM (inactive)	> 100 µM (inactive)	> 100 µM (inactive)	–	> 100 µM (inactive)	> 100 µM (inactive)	–	–
COc1ccc2c3ccc4c(c3n(C)c2c1)C(=O)c1ccccc1C4=O	–	> 100 µM	> 100 µM (inactive)	–	51.3 µM (inactive)	13.4 µM (inactive)	> 100 µM (inactive)	–	> 100 µM (inactive)	78.2 µM (inactive)	36.9 µM (inactive)	–	> 100 µM (inactive)	> 100 µM (inactive)	–	–	63.8 µM (inactive)	22.2 µM (inactive)	> 100 µM (inactive)
COc1cc(/C=N/c2nncs2)ccc1O	> 100 µM (inactive)	> 100 µM	> 100 µM (inactive)	> 100 µM (inactive)	> 100 µM (inactive)	> 100 µM (inactive)	> 100 µM (inactive)	> 100 µM (inactive)	> 100 µM (inactive)	> 100 µM (inactive)	> 100 µM (inactive)	–	> 100 µM (inactive)	> 100 µM (inactive)	> 100 µM (inactive)	> 100 µM (inactive)	> 100 µM (inactive)	> 100 µM (inactive)	–
Cc1cc(O)c2c(c1)C(O)(c1ccc3c(c1O)C(=O)c1c(O)cc(C)cc1C3(O)C1OC(CO)C(O)C(O)C1O)c1cccc(O)c1C2=O (stereo unspecified)	–	12.8 µM	8.34 µM (inactive)	17.7 µM (inactive)	13 µM (inactive)	15.3 µM (inactive)	3.09 µM (inactive)	14 µM (inactive)	16 µM (inactive)	11.6 µM (inactive)	13.4 µM (inactive)	11.4 µM (inactive)	15.2 µM (inactive)	18.9 µM (inactive)	11.5 µM (inactive)	18.1 µM (inactive)	11.6 µM (inactive)	13.6 µM (inactive)	–
O=C(O)CCSC(=O)Nc1ccccc1	> 100 µM (inactive)	> 100 µM	> 100 µM (inactive)	> 100 µM (inactive)	97.9 µM (inactive)	> 100 µM (inactive)	> 100 µM (inactive)	> 100 µM (inactive)	> 100 µM (inactive)	> 100 µM (inactive)	> 100 µM (inactive)	> 100 µM (inactive)	> 100 µM (inactive)	–	> 100 µM (inactive)	> 100 µM (inactive)	> 100 µM (inactive)	> 100 µM (inactive)	–
CN(C)c1ccc(/C=C/C(=O)c2ccccc2)cc1Br	18.4 µM (inactive)	22.9 µM	20.5 µM (inactive)	16.3 µM (inactive)	22.8 µM (inactive)	17.2 µM (inactive)	–	35.7 µM (inactive)	19.2 µM (inactive)	20 µM (inactive)	23.2 µM (inactive)	–	16.5 µM (inactive)	18.4 µM (inactive)	15.8 µM (inactive)	49.3 µM (inactive)	18.5 µM (inactive)	–	15 µM (inactive)
Cc1cccc(C)c1NC(=O)C(=O)C1C(=O)NC(=O)NC1=O	–	> 100 µM	> 100 µM (inactive)	> 100 µM (inactive)	> 100 µM (inactive)	> 100 µM (inactive)	> 100 µM (inactive)	> 100 µM (inactive)	> 100 µM (inactive)	> 100 µM (inactive)	> 100 µM (inactive)	> 100 µM (inactive)	> 100 µM (inactive)	> 100 µM (inactive)	> 100 µM (inactive)	> 100 µM (inactive)	> 100 µM (inactive)	> 100 µM (inactive)	> 100 µM (inactive)
